Measured values: patent US20260174769A1, “MACROCYCLIC COMPOUNDS AND METHODS OF USE” (AMGEN INC., priority 2022, published 2026)
Where two headings read alike, the source gives them in different places. Values belong to the molecule of their own block, whether it stands above or below them.

How the values were obtained:
AsPC-1 cells = assay: AsPC-1 CTG Assay (CellTiter-Glo cell viability, 72 h); assay type: cell-based, human; details: read-out: G12D/C/V Cell Proliferation CTG (72 h) AsPC-1
Method: (§1) AsPC-1 and SW620 CTG Assay Protocols
(§2) Serially-diluted compound or DMSO was added to the cells, and plates were incubated at 37° C., 5% CO2 for 72 h. Cell viability was measured using a CellTiter-Glo® Luminescent Cell Viability Assay kit (Promega) according to the manufacturer's protocol. The luminescence signal of treated samples was normalized to DMSO control, and data were analyzed using a 4-parameter logistic model to calculate IC50 values.

[1] = test system: phospho-ERK1/2 in PANC 04.03 tumors; assay: Tumor Pharmacodynamic Assay (p-ERK inhibition in PANC 04.03 tumor-bearing mice); assay type: in vivo; details: PANC 04.03 tumor-bearing female athymic nude mice; single oral dose 100 mg/kg; tumors harvested 2 hours later; p-ERK1/2 normalized to total ERK1/2, relative to vehicle group
Method: Tumor Pharmacodynamic Assays
Inhibitor pharmacodynamic effects were assessed in PANC 04.03 tumor-bearing mice. PANC 04.03 tumor cells (5.0E+06 cells) were injected subcutaneously into the flank of female athymic nude mice in a mixture with Matrigel (BD Bioscience). Mice received a single oral dose of either vehicle or inhibitors (100 mg/kg) when the average tumor size reached ˜300-600 mm^3 (n=3/group) and harvested 2 hours later. Tumor samples were collected, snap frozen, and processed for analysis by pulverizing with a cryoPREP® Dry Impactor (Covaris). Pulverized samples were resuspended in RIPA lysis buffer containing protease and phosphatase inhibitors and homogenized. Cleared lysates were analyzed using phospho-ERK1/2 and total ERK1/2 whole cell lysate kits (Meso Scale Discovery) according to the manufacturer's protocol. Phospho-ERK1/2 signal was normalized to total ERK1/2 signal for a given sample, and percent inhibition of p-ERK was calculated relative to the vehicle group.

[2] = test system: Phosphorylation of ERK1/2 in AsPC-1 cells; assay: Phospho-ERK1/2 MSD Assay; assay type: cell-based, human; details: read-out: 2 h p-ERK (AsPC-1 cells), IC50
Method: Sixteen hours prior to compound treatment, AsPC-1 cells were seeded in 96-well cell culture plates at a density of 25,000 cells/well and incubated at 37° C., 5% CO2. A compound dose-response titration was diluted in growth media, added to appropriate wells of a cell culture plate, and then incubated at 37° C., 5% CO2 for 2 hours. […] Phosphorylation of ERK1/2 in compound-treated lysates was assayed using Phospho-ERK 1/2 Whole Cell Lysate kits (Meso Scale Discovery K151DWD) according to the manufacturer's protocol. Assay plates were read on a Meso Scale Discovery Sector Imager 6000, and data were analyzed using a 4-parameter logistic model to calculate IC50 values.

MIA PaCa-2 cells = assay: MIA PaCa-2 CTG Assay (CellTiter-Glo cell viability, 72 h); assay type: cell-based, human; details: second value of cell, read-out: G12D/C/V Cell Proliferation CTG (72 h) Mia PaCa-2
Method: MIA PaCa-2 CTG Assay Protocol
as §2

SW620 cells = assay: SW620 CTG Assay (CellTiter-Glo cell viability, 72 h); assay type: cell-based; details: Homo sapiens, SW-620, third value of cell, read-out: G12D/C/V Cell Proliferation CTG (72 h) SW620
Method: as §1
as §2, with “AsPC-1 (human pancreatic adenocarcinoma; ATCC CRL-1682) or SW620 (human colon adenocarcinoma; ATCC CCL-227) cells were cultured in RPMI 1640 medium containing 10% fetal bovine serum and 1× penicillin/streptomycin/L-glutamine. Cells were seeded in 384-well plates at a density of 3.33E+04 cells/mL and incubated at 37° C., 5% CO2, overnight. Serially-diluted” for “Serially-diluted”

[3] = 16-membered ring

SMILES: O=C1COCCCc2c(Cl)cc3[nH]ncc3c2-c2ncc3c(nc(OC[C@@]45CCCN4C[C@H](F)C5)nc3c2F)N2CC[C@H]3CCN1[C@H]3C2 [Example 168]
IC50 (AsPC-1 cells): 10 nM
p-ERK (% inhibition) 2 hr. [1]: 65%
IC50 [2]: 1.3 nM

IC50 (AsPC-1 cells; Homo sapiens, ASPC1, 72 h, AsPC-1 cells, 72 h, first value of cell): 40 nM
IC50 (MIA PaCa-2 cells; Homo sapiens): 26 nM
IC50 ([2]; Homo sapiens, ASPC1, 2 h, AsPC-1 cells, 2 h compound treatment): 3.2 nM
IC50 (SW620 cells): 8 nM
SMILES: Fc1c2ncc3c(nc(OC[C@@]45CCCN4C[C@H](F)C5)nc13)N1CCC[C@]3(C1)C[C@H](C3)OCCCCc1c(Cl)cc3[nH]ncc3c1-2 [Example 260, (1S,3R)-10-Chloro-32-fluoro-24-(((2R,7aS)-2-fluorotetrahydro-1H-pyrrolo[1,2-a]pyrrol-7a(5H)-yl)methoxy)-4-oxa-13,14,19,23,25,27-hexaazaheptacyclo[25.3.1.1˜1,3˜.1˜18,22˜.0˜9,17˜.0˜12,16˜.0˜21,26˜]tritriaconta-9,11,14,16,18(32),19,21,23,25-nonaene bis(2,2,2-trifluoroacetate)]

IC50 (AsPC-1 cells; AsPC-1 cells, 72 h, first value of cell): 13 nM
IC50 (MIA PaCa-2 cells): 7 nM
IC50 ([2]; AsPC-1 cells, 2 h compound treatment): 7.8 nM
SMILES: O=C1OCCc2c(Cl)cc3[nH]ncc3c2-c2ncc3c(nc(OC[C@@]45CCCN4C[C@H](F)C5)nc3c2F)N2CCO[C@]3(C2)C[C@H](C3)O1 [Example 248, (1R.3R)-10-chloro-32-fluoro-24-(((2R,7aS)-2-fluorotetrahydro-1H-pyrrolo[1,2-α]pyrrol-7a(SH)-yl)methoxy)-4,6,30-trioxa-1.3,14,19,23,25,27-hexaazaheptacyclo[25.3.1.1~1,3~.1~18,22~.0~9.17~.0~12,16~.0~21,26~]tritriaconta-9,11,14,16,18(32),19,21,23,25-nonaen-5-one]
p-ERK (% inhibition) 2 hr. [1]: 85%

SMILES: Cc1cc2c(cnn2C2CCCCO2)c2c1CCCn1ncc(n1)C1CCCN(C1)c1nc(OC[C@@]34CCCN3C[C@H](F)C4)nc3c(F)c-2ncc13 (stereo partly shown)
ring closure, isolated yield ([3]; from Cc1cc2c(cnn2C2CCCCO2)c(-c2ncc3c(N4CCCC(c5cn[nH]n5)C4)nc(OC[C@@]45CCCN4C[C@H](F)C5)nc3c2F)c1CCCCl, other bond, K2CO3/TBAI, MeCN, 6.9 mM, 85.0 °C, 3.0 h): 31%

SMILES: Cc1cc2c(cnn2C2CCCCO2)c2c1CCCCC(=O)N[C@@H]1CCCN(C1)c1nc(OC[C@@]34CCCN3C[C@H](F)C4)nc3c(F)c-2ncc13 (stereo partly shown)
ring closure, isolated yield ([3]; from Cc1cc2c(cnn2C2CCCCO2)c(-c2ncc3c(N4CCC[C@@H](N)C4)nc(OC[C@@]45CCCN4C[C@H](F)C5)nc3c2F)c1CCCCC(=O)O, amide bond, HATU/DIEA, DMA, 4.7 mM, 25.0 °C, 1.5 h): 22%
